# Where two headings read alike, the source gives them in different places.
# Assays:
# [1] = tested on: Cardiac cells (H9C2); assay: cells; format: cell-based; conditions: Spike S1 Protein (5 μg/ml); for inhibition at 0.1 µM / inhibition at 1 µM / inhibition at 10 µM / inhibition at 20 µM: Rattus norvegicus, H9c2
# [2] = tested on: Endothelial cells (EA.hy926); assay: cells; format: cell-based; conditions: Spike S1 Protein (1 μg/ml); for inhibition at 0.1 µM / inhibition at 1 µM / inhibition at 10 µM / inhibition at 20 µM: Homo sapiens, EA.hy 926
# [3] = tested on: Kidney cells (HEK-293); assay: cells; format: cell-based; conditions: Spike S1 Protein (100 ng/ml); for inhibition at 0.1 µM / inhibition at 1 µM / inhibition at 10 µM / inhibition at 20 µM: Homo sapiens, HEK293
# [4] = tested on: Immune (THP-1) cells; assay: in vitro; format: cell-based, Human; conditions: 48 h
# Description: (§1) A549 cells were plated in DMEM+10% FBS at a density of 10,000 cells/well in 96-well culture plates and incubated at 37° C. for 24 h. THP-1 cells were plated in RPMI+10% FBS at a density of 10,000 cells/well in 96-well culture plates and incubated at 37° C. for 24 h. Cells were sera-starved for 24 h. […] Untreated cells were used as control. Cells treated with dexamethasone and hydroxychloroquine were included as positive control. After treatment, cells were incubated in a 5% CO2 incubator for 48 h.
# [5] = in vitro; format: cell-based, Human; conditions: human, 1 μM
# Description: as §1
# [6] = tested on: pancreatic cells (PANC-1); assay: cells; format: cell-based; conditions: Spike S1 Protein (20 μg/ml)+
# [7] = tested on: liver cells (HepG2); assay: cells; format: cell-based; conditions: Spike S1 Protein (20 μg/ml)
# [8] = tested on: Colon cells (HT-29); assay: cells; format: cell-based; conditions: Spike S1 Protein (1 μg/ml); for inhibition at 0.1 µM / inhibition at 1 µM / inhibition at 10 µM / inhibition at 20 µM: Homo sapiens, HT-29
# [9] = in vitro; format: cell-based, Human; conditions: human, 1 μM; remark: listed apart in the source
# Description: as §1
# [10] = tested on: Lung (A549) cells; assay: in vitro; format: cell-based, Human; conditions: 48 h
# Description: as §1
# [11] = tested on: Bladder cells (T24); assay: tissue or blood; format: cell-based; conditions: Spike S1 Protein (5 μg/ml)
# [12] = tested on: Bone cells (MG-63); assay: cells; format: cell-based; conditions: Spike S1 Protein (10 μg/ml); for inhibition at 0.1 µM / inhibition at 1 µM / inhibition at 10 µM / inhibition at 20 µM: Homo sapiens, MG-63
# [13] = 0.1 μM, read-out: % Inhibition (IL-6)
# [14] = 0.1 μM, read-out: % Inhibition (IL-8)
# [15] = 1 μM, read-out: % Inhibition (IL-6)
# [16] = 1 μM, read-out: % Inhibition (IL-8)
# [17] = 10 μM, read-out: % Inhibition (IL-6)
# [18] = 10 μM, read-out: % Inhibition (IL-8)
# [19] = 20 μM, read-out: % Inhibition (IL-6)
# [20] = 20 μM, read-out: % Inhibition (IL-8)
# [21] = 0.1 μM, read-out: % Inhibition (wrt Control), IL-6
# [22] = 0.1 μM, read-out: % Inhibition (wrt Control), IL-8
# [23] = 1 μM, read-out: % Inhibition (wrt Control), IL-6
# [24] = 1 μM, read-out: % Inhibition (wrt Control), IL-8
# [25] = 10 μM, read-out: % Inhibition (wrt Control), IL-6
# [26] = 10 μM, read-out: % Inhibition (wrt Control), IL-8
# [27] = 20 μM, read-out: % Inhibition (wrt Control), IL-6
# [28] = 20 μM, read-out: % Inhibition (wrt Control), IL-8
smiles,measurement,setting,value
CCN(CCO)CCCC(C)Nc1ccnc2cc(Cl)ccc12 (stereo not shown) [Hydroxychloroquine sulphate],Con. of IL-8,[1]; 0.1 μM,952.1
same,Conc. of IL-6,[1]; 0.1 μM,420.1
same,Con. of IL-8,[1]; 1 μM,768.5
same,Conc. of IL-6,[1]; 1 μM,313.4
same,Con. of IL-8,[1]; 10 μM,231.8
same,Conc. of IL-6,[1]; 10 μM,125.2
same,Con. of IL-8,[1]; 20 μM,45.5
same,Conc. of IL-6,[1]; 20 μM,61.8
same,inhibition at 0.1 µM,[1]; [13],16.9%
same,inhibition at 0.1 µM,[1]; [14],33.5%
same,inhibition at 1 µM,[1]; [15],38%
same,inhibition at 1 µM,[1]; [16],46.3%
same,inhibition at 10 µM,[1]; [17],75.2%
same,inhibition at 10 µM,[1]; [18],83.8%
same,inhibition at 20 µM,[1]; [19],87.8%
same,inhibition at 20 µM,[1]; [20],96.8%
same,Con. of IL-8,[2]; 0.1 μM,826.7 pg/mL
same,Conc. of IL-6,[2]; 0.1 μM,145.1 pg/mL
same,Con. of IL-8,[2]; 1 μM,1026.6 pg/mL
same,Conc. of IL-6,[2]; 1 μM,200.3 pg/mL
same,Con. of IL-8,[2]; 10 μM,1756.7 pg/mL
same,Conc. of IL-6,[2]; 10 μM,64.0 pg/mL
same,Con. of IL-8,[2]; 20 μM,1573.3 pg/mL
same,Conc. of IL-6,[2]; 20 μM,58.9 pg/mL
same,inhibition at 0.1 µM,"[2]; 0.1 μM, read-out: % Inhibition (wrt, IL-6)",56.9%
same,inhibition at 0.1 µM,"[2]; 0.1 μM, read-out: % Inhibition (wrt, IL-8)",48.8%
same,inhibition at 1 µM,"[2]; 1 μM, read-out: % Inhibition (wrt, IL-6)",40.5%
same,inhibition at 1 µM,"[2]; 1 μM, read-out: % Inhibition (wrt, IL-8)",36.5%
same,inhibition at 10 µM,"[2]; 10 μM, read-out: % Inhibition (wrt, IL-6)",81%
same,inhibition at 10 µM,"[2]; 10 μM, read-out: % Inhibition (wrt, IL-8)",0%
same,inhibition at 20 µM,"[2]; 20 μM, read-out: % Inhibition (wrt, IL-6)",82.5%
same,inhibition at 20 µM,"[2]; 20 μM, read-out: % Inhibition (wrt, IL-8)",2.6%
same,Con. of IL-8,[3]; 0.1 μM,651.8 pg/mL
same,Conc. of IL-6,[3]; 0.1 μM,94.2 pg/mL
same,Con. of IL-8,[3]; 1 μM,678.2 pg/mL
same,Conc. of IL-6,[3]; 1 μM,97.4 pg/mL
same,Con. of IL-8,[3]; 10 μM,959.1 pg/mL
same,Conc. of IL-6,[3]; 10 μM,137.7 pg/mL
same,Con. of IL-8,[3]; 20 μM,1809.1 pg/mL
same,Conc. of IL-6,[3]; 20 μM,260.0 pg/mL
same,inhibition at 0.1 µM,[3]; [21],63.8%
same,inhibition at 0.1 µM,[3]; [22],66%
same,inhibition at 1 µM,[3]; [23],62.6%
same,inhibition at 1 µM,[3]; [24],64.6%
same,inhibition at 10 µM,[3]; [25],47.1%
same,inhibition at 10 µM,[3]; [26],49.9%
same,inhibition at 20 µM,[3]; [27],0%
same,inhibition at 20 µM,[3]; [28],5.5%
same,% Viability,[4]; 0.1 μM,113.4%
same,% Viability,[4]; 1 μM,105.2%
same,% Viability,[4]; 5 μM,95.8%
same,% Viability,[4]; 10 μM,104.8%
same,% Viability,[4]; 20 μM,89.3%
same,"cytotoxicity at 48 h, 1 µM",[5],-5.2%
same,Conc. of IL-8,[6]; 0.1 μM,214 pg/mL
same,Conc. of IL-8,[6]; 1 μM,169.9 pg/mL
same,Conc. of IL-8,[6]; 10 μM,200.5 pg/mL
same,Conc. of IL-8,[6]; 20 μM,203 pg/mL
same,inhibition at 0.1 µM,"[6]; Homo sapiens, PANC-1, 0.1 μM, read-out: % Inhibition (wrt Control ), IL-8",71.3%
same,inhibition at 1 µM,"[6]; Homo sapiens, PANC-1, 1 μM, read-out: % Inhibition (wrt Control ), IL-8",77.2%
same,inhibition at 10 µM,"[6]; Homo sapiens, PANC-1, 10 μM, read-out: % Inhibition (wrt Control ), IL-8",73.1%
same,inhibition at 20 µM,"[6]; Homo sapiens, PANC-1, 20 μM, read-out: % Inhibition (wrt Control ), IL-8",72.8%
same,Conc. of IL-8,[7]; 0.1 μM,117.1 pg/mL
same,Conc. of IL-8,[7]; 1 μM,193.2 pg/mL
same,Conc. of IL-8,[7]; 10 μM,162.5 pg/mL
same,Conc. of IL-8,[7]; 20 μM,103.6 pg/mL
same,inhibition at 0.1 µM,"[7]; Homo sapiens, HepG2, 0.1 μM, read-out: % Inhibition (wrt Control ), IL-8",76.5%
same,inhibition at 1 µM,"[7]; Homo sapiens, HepG2, 1 μM, read-out: % Inhibition (wrt Control ), IL-8",61.3%
same,inhibition at 10 µM,"[7]; Homo sapiens, HepG2, 10 μM, read-out: % Inhibition (wrt Control ), IL-8",67.4%
same,inhibition at 20 µM,"[7]; Homo sapiens, HepG2, 20 μM, read-out: % Inhibition (wrt Control ), IL-8",79.2%
same,Con. of IL-8,[8]; 0.1 μM,49.1 pg/mL
same,Conc. of IL-6,[8]; 0.1 μM,114.8 pg/mL
same,Con. of IL-8,[8]; 1 μM,92.3 pg/mL
same,Conc. of IL-6,[8]; 1 μM,91.1 pg/mL
same,Con. of IL-8,[8]; 10 μM,99.5 pg/mL
same,Conc. of IL-6,[8]; 10 μM,125.2 pg/mL
same,Con. of IL-8,[8]; 20 μM,37.6 pg/mL
same,Conc. of IL-6,[8]; 20 μM,104.2 pg/mL
same,inhibition at 0.1 µM,[8]; [21],51.3%
same,inhibition at 0.1 µM,[8]; [22],92.7%
same,inhibition at 1 µM,[8]; [23],61.4%
same,inhibition at 1 µM,[8]; [24],86.2%
same,inhibition at 10 µM,[8]; [25],46.9%
same,inhibition at 10 µM,[8]; [26],85.2%
same,inhibition at 20 µM,[8]; [27],55.8%
same,inhibition at 20 µM,[8]; [28],94.4%
same,"cytotoxicity at 48 h, 1 µM",[9],-5.2%
same,% Viability,[10]; 0.1 μM,79.0%
same,% Viability,[10]; 1 μM,105.2%
same,% Viability,[10]; 5 μM,101.0%
same,% Viability,[10]; 10 μM,110.9%
same,% Viability,[10]; 20 μM,72.4%
same,Con. of IL-8,[11]; 0.1 μM,2661.3
same,Conc. of IL-6,[11]; 0.1 μM,432.0
same,inhibition at 0.1 µM,[11]; [13],25.2%
same,inhibition at 0.1 µM,[11]; [14],37.7%
same,Con. of IL-8,[11]; 1 μM,2527.7
same,Conc. of IL-6,[11]; 1 μM,410.8
same,inhibition at 1 µM,[11]; [15],28.9%
same,inhibition at 1 µM,[11]; [16],40.9%
same,Con. of IL-8,[11]; 10 μM,2679.5
same,Conc. of IL-6,[11]; 10 μM,430.2
same,inhibition at 10 µM,[11]; [17],25.5%
same,inhibition at 10 µM,[11]; [18],37.3%
same,Con. of IL-8,[11]; 20 μM,2470.0
same,Conc. of IL-6,[11]; 20 μM,415.8
same,inhibition at 20 µM,[11]; [19],28%
same,inhibition at 20 µM,[11]; [20],42.2%
same,Con. of IL-8,[12]; 0.1 μM,703.3 pg/mL
same,Conc. of IL-6,[12]; 0.1 μM,136.5 pg/mL
same,Con. of IL-8,[12]; 1 μM,660.0 pg/mL
same,Conc. of IL-6,[12]; 1 μM,171.8 pg/mL
same,Con. of IL-8,[12]; 10 μM,774.4 pg/mL
same,Conc. of IL-6,[12]; 10 μM,233.8 pg/mL
same,Con. of IL-8,[12]; 20 μM,1388.3 pg/mL
same,Conc. of IL-6,[12]; 20 μM,354.0 pg/mL
same,inhibition at 0.1 µM,[12]; [21],14.7%
same,inhibition at 0.1 µM,[12]; [22],0.6%
same,inhibition at 1 µM,[12]; [23],-7.4%
same,inhibition at 1 µM,[12]; [24],6.8%
same,inhibition at 10 µM,[12]; [25],-46.1%
same,inhibition at 10 µM,[12]; [26],-9.4%
same,inhibition at 20 µM,[12]; [27],-121%
same,inhibition at 20 µM,[12]; [28],-96.2%
